These results are taken from patent US12037386B2, “Antibodies to PfGARP kill Plasmodium falciparum malaria parasites and protect against infection and severe disease” (priority 2020, dated 2024).

Like-named read-outs stand apart in the source and are kept apart here.

The subject of one assay is Ring stage 3D7 parasites. In words: Food vacuole integrity, Fluo-4-AM confocal microscopy. The format is cell-based, Plasmodium falciparum. The note with it: 1 μM, positive control, 24 hours. As to the method:
FIG. 17 are images showing that anti-PfGARP disrupts food vacuole integrity. Ring stage 3D7 parasites were treated with pre-immune sera (1:10), 1 μM chloroquine, or anti-PfGARP antisera (1:10) for 24 hours, followed by staining with DAPI and Fluo-4-AM. […] Data are representative of 2 independent experiments.
The impact of anti-PfGARP antibodies on food vacuole integrity by confocal microscopy was evaluated using the calcium binding dye Fluo-4-AM, which preferentially labels the food vacuole and has been used to distinguish the food vacuole from the endoplasmic reticulum (Zhang, M. et al. Science 360 (2018)).
The impact of anti-PfGARP antibodies on food vacuole integrity was further evaluated by confocal microscopy using the calcium binding dye Fluo-4-AM, which specifically labels the food vacuole. Ring stage 3D7 parasites were incubated with culture media (negative control), 1 μM chloroquine (positive control), or anti-PfGARP prepared by rPfGARP-A immunization for 24 hours. Parasites were washed with 1×PBS three times and incubated with Fluo-4-AM (a cell-permeable calcium-sensing dye that fluoresces green when bound with Ca^+2) at a final concentration of 2 μM and DAPI for 30 minutes, at 37° C. The parasites were washed with 1×PBS and observed under a fluorescent microscope.

Assay [1] concerns food vacuole of parasites. The conditions noted are these: cited from earlier work.

Turning to `CCN(CC)CCCC(C)Nc1ccnc2cc(Cl)ccc12` (stereo not drawn) [chloroquine], the “food vacuole integrity (Fluo-4-AM redistribution)” value in the assay with Ring stage 3D7 parasites is on record as “disrupts the food vacuole leading to dispersion of the dye into the parasite's cytosol”. Also, the “effect on food vacuole” value in assay [1] (high concentrations (3 μM)) was “disrupts the food vacuole membrane”; in assay [1] (lower concentrations (68 nM)) it was “marked food vacuole swelling, but no extravasation of hemozoin into the cytoplasm”.
